Legend:
SR cells = test: Half inhibitory concentration (IC50) on ALK-positive SR cell proliferation (CCK-8); type: cell-based; settings: Homo sapiens; SR cells, 72 h drug treatment, CCK-8; read-out: IC50 (nM)/ SR cell line
Protocol: (§1) ALK-positive SR cells (human large cell immunoblastic lymphoma) were purchased from the American Type Culture Collection (ATCC); H3122 cells (human non-small cell lung cancer) were from the Shanghai University of Science and Technology Lin Haifan's research group.
(§2) The cells used in this present disclosure were cultured in a 37° C. incubator containing 5% CO2.
SR cells were seeded in 100 μL RPMI1640 complete medium at a density of 10,000 cells/well. 100 μL of the inoculated cells were treated with 0.5 μL diluted PROTAD compound of the present disclosure to be tested at 10 successively decreasing concentrations (starting at the highest concentration of 10 μM; 5-fold serial dilutions) After the cells were treated with the drug for 72 h, cell viability was determined according to the CCK-8 reagent operating instructions. The negative control was DMSO, and the positive control was a commercial inhibitor. After CCK-8 treatment for 2 h, the value of O.D.450 was measured using a microplate reader.

ALK protein = ALK protein (Homo sapiens, UniProt Q9UM73); test: Western-blot half degradation concentration (DC50) of ALK protein in H3122 cells; type: cell-based; settings: 24 h drug treatment, read-out: DC50 (nM)/ H3122 cell line
Protocol: as §1, §2
DC50 (drug concentration corresponding to protein degradation to 50%) calculation: according to the gray value of the corresponding Western blotting band after drug treatment, fitting the relationship curve between drug concentration and gray value to calculate the drug concentration range corresponding to half of the gray value.

MV-4-11 cells = test: Half inhibitory concentration (IC50) on BET-expressing tumor cells, CCK-8, MV-4-11; settings: Homo sapiens, MV4-11, read-out: IC50 (nM)/MV-4-11 cell line, MV-4-11 cells, 48/72 h, CCK-8
MM1S cells = test: Half inhibitory concentration (IC50) on BET-expressing tumor cells, CCK-8, MM1S; type: cell-based; settings: Homo sapiens, MM1.S, 48/72 h, read-out: IC50 (nM)/MM1S cell line
Protocol: BET-expressing cells MV-4-11 cells (human B granulocytic leukemia cells), MDA-MB-231 cells (human breast cancer cells), MDA-MB-468 cells (human breast cancer cells), MDA-MB-453 Cells (human breast cancer cells), MM1S cells (myeloma (immunoglobulin A lambda), B lymphoblasts) and SR cells (human large cell immunoblast lymphoma) were purchased from the American Type Culture Collection (ATCC).
The cells used in this present disclosure were cultured in a 37° C. incubator containing 5% CO2. The complete cell culture medium was RPMI 1640/IMDM/DMEM medium with 10% fetal bovine serum, and the final concentrations of penicillin and streptomycin were 100 U/mL, respectively. All cells were tested negative for mycoplasma with mycoplasma detection kit before the experiment.
Determination of the Half Inhibitory Concentration (IC50) of PROTAD Compounds on Tumor Cells
MV-411 cells, MM1S cells and SR cells were seeded in 100 μL IMDM/RPMI1640/DMEM complete medium at a density of 15000/10000 cells/well; MDA-MB-231 cells, MDA-MB-468 cells, and MDA-MB453 cells were seeded in 100 μL IMDM/RPMI1640/DMEM complete medium at a density of 3000/5000 cells/well, respectively. 100 μL of the inoculated cells were treated with 0.5 μL diluted PROTAD compounds of the present disclosure to be tested at 10 successively decreasing concentrations (starting at the highest concentration of 10 μM; 5-fold serial dilutions). After the cells were treated with the tested drugs 48/72 h, the cell viability was determined according to the CCK-8 reagent manual. The negative control was DMSO, and the positive control was a commercial inhibitor. After CCK-8 treatment for 2 h, the value of O.D.450 was measured using a microplate reader.

Chain of ALK protein (Q9UM73 with tags, fused parts or gaps): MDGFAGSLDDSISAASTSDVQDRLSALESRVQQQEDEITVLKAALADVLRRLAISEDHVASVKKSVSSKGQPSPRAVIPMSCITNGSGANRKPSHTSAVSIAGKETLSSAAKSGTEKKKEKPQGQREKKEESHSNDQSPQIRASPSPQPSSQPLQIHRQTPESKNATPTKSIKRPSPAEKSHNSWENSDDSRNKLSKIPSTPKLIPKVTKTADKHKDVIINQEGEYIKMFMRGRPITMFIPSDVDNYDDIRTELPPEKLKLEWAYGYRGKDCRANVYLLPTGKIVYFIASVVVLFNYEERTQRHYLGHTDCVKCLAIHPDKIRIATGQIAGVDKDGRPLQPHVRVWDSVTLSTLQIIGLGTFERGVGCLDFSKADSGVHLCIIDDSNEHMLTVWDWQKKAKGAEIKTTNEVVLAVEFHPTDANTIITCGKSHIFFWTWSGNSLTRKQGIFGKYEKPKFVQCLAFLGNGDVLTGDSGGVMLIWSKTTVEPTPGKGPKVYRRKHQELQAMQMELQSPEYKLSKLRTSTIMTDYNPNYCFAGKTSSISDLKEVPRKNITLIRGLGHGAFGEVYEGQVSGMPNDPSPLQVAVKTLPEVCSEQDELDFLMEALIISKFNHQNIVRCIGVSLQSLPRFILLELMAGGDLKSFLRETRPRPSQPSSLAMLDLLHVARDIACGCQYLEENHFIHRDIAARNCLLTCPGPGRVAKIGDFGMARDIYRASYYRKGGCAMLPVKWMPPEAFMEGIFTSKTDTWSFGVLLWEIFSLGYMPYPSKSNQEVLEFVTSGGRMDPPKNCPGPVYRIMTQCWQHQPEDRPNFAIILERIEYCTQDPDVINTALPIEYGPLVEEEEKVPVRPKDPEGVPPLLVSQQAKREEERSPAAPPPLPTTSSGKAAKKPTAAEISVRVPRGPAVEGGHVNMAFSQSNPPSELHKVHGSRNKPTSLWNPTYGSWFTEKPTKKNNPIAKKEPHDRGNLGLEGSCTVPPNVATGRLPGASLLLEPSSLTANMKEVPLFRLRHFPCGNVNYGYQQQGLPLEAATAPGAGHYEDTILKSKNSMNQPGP

Compound	IC50 (SR cells) [nM]	DC50 (ALK protein) [nM]	IC50 (MV-4-11 cells) [nM]	IC50 (MM1S cells) [nM]
COc1cc(N2CCC(NC(=O)CCCCSc3cccc4c3C(=O)N(C3CCC(=O)NC3=O)C4=O)CC2)ccc1Nc1ncc(Cl)c(Nc2ccccc2P(C)(C)=O)n1 (centres unmarked) [SIAIS164140, N-(1-(4-((5-chloro-4-((2-(dimethylphosphoryl)phenyl)amino)pyrimidin-2-yl)amino)-3-methoxyphenyl)piperidin-4-yl)-5-((2-(2,6-dioxopiperidin-3-yl)-1,3-dioxoisoindolin-4-yl)thio)pentanamide]	8.7 ± 4.9	500	–	–
COc1cc(N2CCC(NC(=O)CSc3cccc4c3C(=O)N(C3CCC(=O)NC3=O)C4=O)CC2)ccc1Nc1ncc(Cl)c(Nc2ccccc2P(C)(C)=O)n1 (centres unmarked) [SIAIS164137, N-(1-(4-((5-chloro-4-((2-(dimethylphosphoryl)phenyl)amino)pyrimidin-2-yl)amino)-3-methoxyphenyl)piperidin-4-yl)-2-((2-(2,6-dioxopiperidin-3-yl)-1,3-dioxoisoindolin-4-yl)thio)acetamide]	16.8 ± 5.7	500	–	–
COc1cc(N2CCN(C(=O)CCCCCCSc3cccc4c3C(=O)N(C3CCC(=O)NC3=O)C4=O)CC2)ccc1Nc1ncc(Cl)c(Nc2ccccc2P(C)(C)=O)n1 (centres unmarked) [SIAIS1197159, 4-((7-(4-(4-((5-chloro-4-((2-(dimethylphosphoryl)phenyl)amino)pyrimidin-2-yl)amino)-3-methoxyphenyl)piperazin-1-yl)-7-oxoheptyl)thio)-2-(2,6-dioxopiperidin-3-yl)isoindoline-1,3-dione]	10 ± 5.7	500	–	–
Cc1sc2c(c1C)C(c1ccc(Cl)cc1)=N[C@@H](CC(=O)NCCCCNC(=O)CSc1cccc3c1C(=O)N(C1CCC(=O)NC1=O)C3=O)c1nnc(C)n1-2 (stereo partly drawn) [SIAIS213075, 2-((S)-4-(4-chlorophenyl)-2,3,9-trimethyl-6H-thieno[3,2-f][1,2,4]triazolo[4,3-a][1,4]diazepin-6-yl)-N-(4-(2-((2-(2,6-dioxopiperidin-3-yl)-1,3-dioxoisoindolin-4-yl)thio)acetamido)butyl)acetamide]	–	–	6.5 ± 2.5	96.1
COc1cc(N2CCN(C(=O)CSc3cccc4c3C(=O)N(C3CCC(=O)NC3=O)C4=O)CC2)ccc1Nc1ncc(Cl)c(Nc2ccccc2P(C)(C)=O)n1 (centres unmarked) [SIAIS1197113, 4-((2-(4-(4-((5-chloro-4-((2-(dimethylphosphoryl)phenyl)amino)pyrimidin-2-yl)amino)-3-methoxyphenyl)piperazin-1-yl)-2-oxoethyl)thio)-2-(2,6-dioxopiperidin-3-yl)isoindoline-1,3-dione]	23.6 ± 19.4	100	–	–
COc1cc(N2CCC(NC(=O)CCCSc3cccc4c3C(=O)N(C3CCC(=O)NC3=O)C4=O)CC2)ccc1Nc1ncc(Cl)c(Nc2ccccc2P(C)(C)=O)n1 (centres unmarked) [SIAIS164139, N-(1-(4-((5-chloro-4-((2-(dimethylphosphoryl)phenyl)amino)pyrimidin-2-yl)amino)-3-methoxyphenyl)piperidin-4-yl)-4-((2-(2,6-dioxopiperidin-3-yl)-1,3-dioxoisoindolin-4-yl)thio)butanamide]	11.6 ± 6	500	–	–
COc1cc(N2CCN(C(=O)CCSc3cccc4c3C(=O)N(C3CCC(=O)NC3=O)C4=O)CC2)ccc1Nc1ncc(Cl)c(Nc2ccccc2P(C)(C)=O)n1 (centres unmarked) [SIAIS1197115, 4-((3-(4-(4-((5-chloro-4-((2-(dimethylphosphoryl)phenyl)amino)pyrimidin-2-yl)amino)-3-methoxyphenyl)piperazin-1-yl)-3-oxopropyl)thio)-2-(2,6-dioxopiperidin-3-yl)isoindoline-1,3-dione]	42 ± 29.3	500	–	–
COc1cc(N2CCC(NC(=O)CCCCCCSc3cccc4c3C(=O)N(C3CCC(=O)NC3=O)C4=O)CC2)ccc1Nc1ncc(Cl)c(Nc2ccccc2P(C)(C)=O)n1 (centres unmarked) [SIAIS164142, N-(1-(4-((5-chloro-4-((2-(dimethylphosphoryl)phenyl)amino)pyrimidin-2-yl)amino)-3-methoxyphenyl)piperidin-4-yl)-7-((2-(2,6-dioxopiperidin-3-yl)-1,3-dioxoisoindolin-4-yl)thio)heptanamide]	6.4 ± 4	50	–	–
COc1cc(N2CCN(C(=O)CCCCSc3cccc4c3C(=O)N(C3CCC(=O)NC3=O)C4=O)CC2)ccc1Nc1ncc(Cl)c(Nc2ccccc2P(C)(C)=O)n1 (centres unmarked) [SIAIS1197119, 4-((5-(4-(4-((5-chloro-4-((2-(dimethylphosphoryl)phenyl)amino)pyrimidin-2-yl)amino)-3-methoxyphenyl)piperazin-1-yl)-5-oxopentyl)thio)-2-(2,6-dioxopiperidin-3-yl)isoindoline-1,3-dione]	13.2 ± 2.6	500	–	–
Cc1sc2c(c1C)C(c1ccc(Cl)cc1)=N[C@@H](CC(=O)NCCOCCOCCSc1cccc3c1CN(C1CCC(=O)NC1=O)C3=O)c1nnc(C)n1-2 (stereo partly drawn) [SIAIS213072, 2-((S)-4-(4-chlorophenyl)-2,3,9-trimethyl-6H-thieno[3,2-f][1,2,4]triazolo[4,3-a][1,4]diazepin-6-yl)-N-(2-(2-(2-((2-(2,6-dioxopiperidin-3-yl)-1-oxoisoindolin-4-yl)thio)ethoxy)ethoxy)ethyl)acetamide]	–	–	0.5 ± 0.1	3.03
COc1cc(N2CCN(C(=O)CCCSc3cccc4c3C(=O)N(C3CCC(=O)NC3=O)C4=O)CC2)ccc1Nc1ncc(Cl)c(Nc2ccccc2P(C)(C)=O)n1 (centres unmarked) [SIAIS1197117, 4-((4-(4-(4-((5-chloro-4-((2-(dimethylphosphoryl)phenyl)amino)pyrimidin-2-yl)amino)-3-methoxyphenyl)piperazin-1-yl)-4-oxobutyl)thio)-2-(2,6-dioxopiperidin-3-yl)isoindoline-1,3-dione]	16.9 ± 12	500	–	–
Cc1sc2c(c1C)C(c1ccc(Cl)cc1)=N[C@@H](CC(=O)NCCCCNC(=O)CSc1cccc3c1CN(C1CCC(=O)NC1=O)C3=O)c1nnc(C)n1-2 (stereo partly drawn) [SIAIS213094, 2-((S)-4-(4-chlorophenyl)-2,3,9-trimethyl-6H-thieno[3,2-f][1,2,4]triazolo[4,3-a][1,4]diazepin-6-yl)-N-(4-(2-((2-(2,6-dioxopiperidin-3-yl)-1-oxoisoindolin-4-yl)thio)acetamido)butyl)acetamide]	–	–	4.9 ± 0.8	42.5
CCc1cc2c(cc1N1CCN(C(=O)CSc3cccc4c3C(=O)N(C3CCC(=O)NC3=O)C4=O)CC1)C(C)(C)c1[nH]c3cc(C#N)ccc3c1C2=O (centres unmarked) [SIAIS164068, 8-(4-(2-((2-(2,6-dioxopiperidin-3-yl)-1,3-dioxoisoindolin-4-yl)thio)acetyl)piperazin-1-yl)-9-ethyl-6,6-dimethyl-11-oxo-6,11-dihydro-5H-benzo[b]carbazole-3-carbonitrile]	–	104	–	–
Cc1sc2c(c1C)C(c1ccc(Cl)cc1)=N[C@@H](CC(=O)NCCOCCOCCSc1cccc3c1C(=O)N(C1CCC(=O)NC1=O)C3=O)c1nnc(C)n1-2 (stereo partly drawn) [SIAIS213070, 2-((S)-4-(4-chlorophenyl)-2,3,9-trimethyl-6H-thieno[3,2-f][1,2,4]triazolo[4,3-a][1,4]diazepin-6-yl)-N-(2-(2-(2-((2-(2,6-dioxopiperidin-3-yl)-1,3-dioxoisoindolin-4-yl)thio)ethoxy)ethoxy)ethyl)acetamide]	–	–	2 ± 0.4	12.8
COc1cc(N2CCC(NC(=O)CCSc3cccc4c3C(=O)N(C3CCC(=O)NC3=O)C4=O)CC2)ccc1Nc1ncc(Cl)c(Nc2ccccc2P(C)(C)=O)n1 (centres unmarked) [SIAIS164138, N-(1-(4-((5-chloro-4-((2-(dimethylphosphoryl)phenyl)amino)pyrimidin-2-yl)amino)-3-methoxyphenyl)piperidin-4-yl)-3-((2-(2,6-dioxopiperidin-3-yl)-1,3-dioxoisoindolin-4-yl)thio)propanamide]	24.1 ± 17.5	100	–	–

Reference: patent US12226424B2, “Target protein degradation compounds, their anti-tumor use, their intermediates and use of intermediates” (ShanghaiTech University, priority 2018, dated 2025)
